Data: patent publication US11286268B1, “EIF4E-inhibiting compounds and methods” (EFFECTOR THERAPEUTICS, INC., priority 2019, dated 2022)
pIC50: −log10 of the molar value. Read-outs that look alike come from different tables or passages of the source.

Molecular target: recombinant eIF4E (Homo sapiens (Human), UniProt P06730)
Experiment: Fluorescence polarization competition assay for eIF4E binding potency
Procedure, shortened: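 Protein and fluorescent cap-analog probe (EDA-m7GDP-ATTO-550) were mixed first for 5 min, after which serially diluted compound was added to final 75 nM eIF4E, 20 nM probe, 1% DMSO. Reactions equilibrated 30 min at room temperature before polarization was measured.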

[1] = inhibition of eIF4E/EDA-m7GDP-ATTO-550 binding, calculated IC50 values, Table 4B, read-out: IC50
[2] = fluorescence polarization competition, 75 nM recombinant eIF4E, 20 nM EDA-m7GDP-ATTO-550, IC50 class, read-out: elF4E FP
[3] = inhibition of eIF4E/EDA-m7GDP-ATTO-550 binding by 50%, Table 4B calculated values, read-out: IC50

Chain of recombinant eIF4E (P06730 whole entry): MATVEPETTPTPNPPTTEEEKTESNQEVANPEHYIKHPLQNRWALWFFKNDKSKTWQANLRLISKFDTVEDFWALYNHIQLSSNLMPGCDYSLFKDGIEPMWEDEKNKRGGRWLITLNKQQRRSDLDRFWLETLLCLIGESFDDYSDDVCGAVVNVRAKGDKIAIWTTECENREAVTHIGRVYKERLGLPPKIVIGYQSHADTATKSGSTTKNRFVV

| Compound | pIC50 [1] | pIC50 [2] | pIC50 [3] |
| --- | --- | --- | --- |
| Cc1nc2cnc(C3=CCN(CC(F)F)CC3)c(C#N)c2c(=O)n1CC#Cc1ccc(Cl)cc1-c1ccnc2c(C(=O)O)csc12 [compound 1463] | 7.64 | – | – |
| CCN(c1ncc2nc(C)n(CC#Cc3ccc(Cl)cc3-c3ccnc4c(C(=O)O)csc34)c(=O)c2c1C#N)C1CCN(CC(F)(F)F)CC1 [compound 1176] | – | > 7.30 | 7.46 |
| Cc1nc2cnc(N(C)C3CCN(C4CC(F)(F)C4)CC3)c(C#N)c2c(=O)n1CC#Cc1ccc(Cl)cc1-c1ccnc2c(C(=O)NS(=O)(=O)c3ccncc3)csc12 [compound 1829] | 8.20 | – | – |
| Cc1ccc(C#N)c2c(=O)n(CCOc3ccc(Cl)cc3-c3ccnc4c(C(=O)O)csc34)c(C)nc12 [compound 574] | – | 6.00 to 7.30 | 7.24 |
| CCc1cc(-c2cc(Cl)ccc2OCCn2c(C)nc3cnc(N)c(C#N)c3c2=O)c2scc(C(=O)O)c2n1 [compound 1071] | – | 6.00 to 7.30 | 7.27 |
| Cc1nc2cnc(N3CCN([C@H]4C[C@@H](OC(F)F)C4)CC3)c(C#N)c2c(=O)n1CC#Cc1ccc(Cl)cc1-c1ccnc2c(C(=O)O)csc12 [compound 1511] | 7.63 | – | – |
| CCc1cc(-c2cc(Cl)ccc2OCCn2c(C)nc3cc(C(F)(F)F)c(CC4CCNCC4)c(C#N)c3c2=O)c2scc(C(=O)O)c2n1 [compound 1276] | 7.87 | – | – |
| Cc1cc(-c2cc(Cl)ccc2OCCn2c(C)nc3cc(C(F)(F)F)c(-n4cccn4)c(C#N)c3c2=O)c2scc(C(=O)O)c2n1 [compound 633] | – | > 7.30 | 7.89 |
| Cc1nc2cnc(OC3CCN(C4CC(F)(F)C4)CC3)c(C#N)c2c(=O)n1CCOc1ccc(Cl)cc1-c1ccnc2c(C(=O)O)csc12 [compound 1543] | 7.69 | – | – |
| Cc1nc2cnc(N(C)C3CCN([C@H]4C[C@@H]4C(F)(F)F)CC3)c(C#N)c2c(=O)n1CC#Cc1ccc(Cl)cc1-c1ccnc2c(C(=O)O)csc12 [compound 1724] | 8.39 | – | – |
| Cc1nc2cnc(N(C)C3CCN(C(C)C(F)F)CC3)c(C#N)c2c(=O)n1CC#Cc1ccc(Cl)cc1-c1ccnc2c(C(=O)O)csc12 (stereo not drawn) [compound 1518] | 7.97 | – | – |
| Cc1cc(-c2cc(Cl)ccc2OCCn2c(C)nc3cc(C(F)(F)F)c(-c4ncc(F)cc4F)c(C#N)c3c2=O)c2scc(C(=O)O)c2n1 [compound 433] | – | > 7.30 | 8.38 |
| Cc1nc2cc(C(F)(F)F)c(N3CCN(C)CC3)nc2c(=O)n1CCOc1ccc(Cl)cc1-c1ccnc2c(C(=O)NS(C)(=O)=O)csc12 [compound 1155] | – | > 7.30 | 7.74 |
| CNc1ncc(-c2cc(Cl)ccc2OCCn2cnc3cnc(C#N)cc3c2=O)nc1C(=O)O [compound 88] | – | < 6.00 | 5.77 |
| Cc1nc2cnc(N(C)C3CCN(C(CF)CF)CC3)c(C#N)c2c(=O)n1CCOc1ccc(Cl)cc1-c1ccnc2c(C(=O)O)csc12 [compound 1432] | 7.67 | – | – |
| Cc1cc(-c2cc(Cl)ccc2OCCn2c(C)nc3cc(Cl)c(NC4CC4)c(C#N)c3c2=O)c2scc(C(=O)O)c2n1 [compound 958] | – | > 7.30 | 7.87 |
| N#Cc1cccc2c(=O)n(CCOc3ccc(Cl)cc3-c3cccc(C(=O)O)c3)cnc12 [compound 75] | – | < 6.00 | 5.85 |
| CNc1nc2c(F)c(F)cc(CCOc3ccc(Cl)cc3-c3cccc(C(=O)O)c3)c2c(=O)[nH]1 [compound 172] | – | 6.00 to 7.30 | 7.03 |
| CCN(c1ncc2nc(C)n(CC#Cc3ccc(Cl)cc3-c3ccnc4c(C(=O)NS(=O)(=O)c5ccncc5)csc34)c(=O)c2c1C#N)C1CCN([C@H]2C[C@@H](OC(F)(F)F)C2)CC1 [compound 1779] | 7.45 | – | – |
| Cc1cc(-c2cc(Cl)ccc2OCCn2c(C)nc3cnc(N4CCC4)c(C#N)c3c2=O)c2scc(C(=O)O)c2n1 [compound 435] | – | > 7.30 | 7.78 |

| Compound | pIC50 [1] | pIC50 [2] | pIC50 [3] |
| --- | --- | --- | --- |
| Cc1sc2c(-c3cc(Cl)ccc3OCCn3c(C)nc4cc(C(F)(F)F)c(C5CCNCC5)c(C#N)c4c3=O)ccnc2c1C(=O)O [compound 887] | – | > 7.30 | 7.70 |
| Cc1nc2cc(C(F)(F)F)c(N3CCN(CCO)CC3)c(C#N)c2c(=O)n1CC#Cc1ccc(Cl)cc1-c1ccnc2c(C(=O)O)csc12 [compound 859] | – | > 7.30 | 8.25 |
| Cc1cc(-c2cc(Cl)ccc2OCCn2c(C)nc3c(C(C)C)ncc(C#N)c3c2=O)c2scc(C(=O)O)c2n1 [compound 491] | – | > 7.30 | 7.64 |
| Cc1cc(-c2cc(Cl)ccc2OCCn2c(C)nc3cc(Cl)c(C(F)F)c(C#N)c3c2=O)c2scc(C(=O)O)c2n1 [compound 586] | – | > 7.30 | 7.30 |
| Cc1nc2cnc(N(C)C3CCN(C4CC(F)(F)C4)CC3)c(C#N)c2c(=O)n1CC#Cc1ccc(Cl)cc1-c1ccnc2c(C(=O)NS(=O)(=O)Cc3ccccn3)csc12 [compound 1832] | 7.69 | – | – |
| Cc1nc2cnc(N3CCN(C)C(CC#N)C3)c(C#N)c2c(=O)n1CCOc1ccc(Cl)cc1-c1ccnc2c(C(=O)O)csc12 (stereo not drawn) [compound 1342] | 7.52 | – | – |
| Cc1nc2cnc(N(C)C3CCN(CC(C)(F)F)CC3)c(C#N)c2c(=O)n1CC#Cc1ccc(Cl)cc1-c1ccnc2c(C(=O)NS(=O)(=O)c3ccn(C)n3)csc12 [compound 1676] | 8.36 | – | – |
| Cc1nc2cc(C(F)(F)F)c(N3CCN(C)CC3)c(C#N)c2c(=O)n1CCOc1ccc(Cl)cc1 [compound 808] | – | 6.00 to 7.30 | 7.28 |
| N#Cc1cc(C(F)(F)F)cc2nc(CF)n(CCOc3ccc(Cl)cc3-c3cccc(C(=O)O)c3)c(=O)c12 [compound 182] | – | > 7.30 | 7.36 |
| Cc1cc(-c2cc(Cl)ccc2OCCn2c(C)nc3cc(C(F)F)c(C4CC4)c(C#N)c3c2=O)c2scc(C(=O)O)c2n1 [compound 1048] | – | > 7.30 | 7.86 |
| Cc1nc2cnc(N(C)C3CCN(CC(F)(F)C(F)F)CC3)c(C#N)c2c(=O)n1CC#Cc1ccc(Cl)cc1-c1ccnc2c(C(=O)NS(=O)(=O)C3COC3)csc12 [compound 1704] | 8.18 | – | – |
| Cc1cc(-c2cc(Cl)ccc2OCCn2c(C)nc3ccc(N4CCN(C)CC4)nc3c2=O)c2scc(C(=O)O)c2n1 [compound 678] | – | 6.00 to 7.30 | 7.27 |
| CCc1cc(-c2cc(Cl)ccc2OCCn2c(C)nc3cc(C(F)(F)F)c(-c4ccncc4)c(C#N)c3c2=O)c2scc(C(=O)O)c2n1 [compound 1012] | – | > 7.30 | 8.05 |
| Cc1nc2cnc(N3CC4(C3)CN(C3CC3(C)C)C4)c(C#N)c2c(=O)n1CCOc1ccc(Cl)cc1-c1ccnc2c(C(=O)O)csc12 (stereo not drawn) [compound 1436] | 7.53 | – | – |
| Cc1cc(-c2cc(Cl)ccc2OCCn2c(C)nc3cc(C(F)(F)F)c(-c4cc(C)nn4C)c(C#N)c3c2=O)c2scc(C(=O)O)c2n1 [compound 1028] | – | > 7.30 | 8.21 |
| Cc1cc(-c2cc(Cl)ccc2OCCn2c(C)nc3cc(Cl)c(N(C)C4CC4)c(C#N)c3c2=O)c2scc(C(=O)O)c2n1 [compound 957] | – | > 7.30 | 8.24 |
| Cc1nc2cnc(N(C)[C@@H]3CC[C@@H](N(C)CC(F)F)C3)c(C#N)c2c(=O)n1CC#Cc1ccc(Cl)cc1-c1ccnc2c(C(=O)O)csc12 [compound 1581] | 7.84 | – | – |
| N#Cc1cc2c(=O)n(CCOc3ccc(Cl)cc3-c3cc(C(=O)O)c(F)cc3F)cnc2cn1 [compound 86] | – | < 6.00 | 4.30 |
| Cc1nc2cc(C(F)(F)F)c(N3CCN(c4ccncc4)CC3)c(C#N)c2c(=O)n1CCOc1ccc(Cl)cc1-c1cccc(C(=O)O)c1 [compound 387] | – | 6.00 to 7.30 | 6.21 |
